Measurements: article PMC9916964 (International Journal of Molecular Sciences, 2023)
Read-outs that look alike come from different tables or passages of the source.

Tests used:
[1] = target: T1, electric eel acetylcholinesterase (eeAChE) (Electrophorus electricus, UniProt O42275); assay: Cholinesterase inhibition assay (Ellman's method), eeAChE; format: biochemical; settings: for IC50: Ellman's method, 25 °C, pH 7.4
T1 construct: purchased Sigma-Aldrich, St. Louis, MO, USA
Procedure: (§1) Cholinesterase activity was measured by Ellman’s method adapted for microtiter plates, as previously described by Ristovski et al.. A complex and its ligands were first screened for the IC50 determination and then the inhibitory constants (Ki) were determined. A stock solution of C1 (1 mg/mL) was prepared in 5% v/v DMSO in deionized water, while a stock solution of chlorido analogue C1′ (1 mg/mL) was prepared in 100% methanol (MeOH). […] These solutions were added to the wells, and gradually diluted in 100 mM of potassium phosphate buffer (pH 7.4) to the final volume of 50 µL. Acetylthiocholine chloride and 5,5′-dithiobis-2-nitrobenzoic acid were then dissolved in the same buffer to the respective final concentrations of 1 and 0.5 mM and added (100 μL) to the wells of the microtiter plates. C1 was screened against a suite of ChEs of human and animal origin (eeAChE, hrAChE, hsBChE) (all three from Sigma-Aldrich, St. Louis, MO, USA), hrBChE (gift from the research group of Professor Stanislav Gobec, Faculty of Pharmacy, University of Ljubljana), and csBChE. All enzymes were dissolved in the 100 mM potassium phosphate buffer (pH 7.4) to 0.0075 U/mL. Fifty μL of each ChE was added to start the reactions, which were followed spectrophotometrically at 405 nm and 25 °C for 5 min using a kinetic microplate reader (Dynex Technologies Inc., Chantilly, VA, USA). The blank reactions without the inhibitors were run with the appropriate dilutions of the solvents, in which the tested compound and positive control were initially diluted (5% aqueous DMSO or 100% MeOH), and the readings were corrected according to the appropriate blanks. […] Each measurement was repeated at least three times. Data were analyzed using OriginPro software (OriginPro 2020, OriginLab Corporation, Northampton, MA, USA).

[2] = target: T2, human recombinant acetylcholinesterase (hrAChE) (Homo sapiens, UniProt P22303); assay: Cholinesterase inhibition assay (Ellman's method), hrAChE; format: biochemical; settings: for IC50: Ellman's method, 25 °C, pH 7.4
T2 construct: purchased Sigma-Aldrich, St. Louis, MO, USA
T2 sequence (P22303 32-614): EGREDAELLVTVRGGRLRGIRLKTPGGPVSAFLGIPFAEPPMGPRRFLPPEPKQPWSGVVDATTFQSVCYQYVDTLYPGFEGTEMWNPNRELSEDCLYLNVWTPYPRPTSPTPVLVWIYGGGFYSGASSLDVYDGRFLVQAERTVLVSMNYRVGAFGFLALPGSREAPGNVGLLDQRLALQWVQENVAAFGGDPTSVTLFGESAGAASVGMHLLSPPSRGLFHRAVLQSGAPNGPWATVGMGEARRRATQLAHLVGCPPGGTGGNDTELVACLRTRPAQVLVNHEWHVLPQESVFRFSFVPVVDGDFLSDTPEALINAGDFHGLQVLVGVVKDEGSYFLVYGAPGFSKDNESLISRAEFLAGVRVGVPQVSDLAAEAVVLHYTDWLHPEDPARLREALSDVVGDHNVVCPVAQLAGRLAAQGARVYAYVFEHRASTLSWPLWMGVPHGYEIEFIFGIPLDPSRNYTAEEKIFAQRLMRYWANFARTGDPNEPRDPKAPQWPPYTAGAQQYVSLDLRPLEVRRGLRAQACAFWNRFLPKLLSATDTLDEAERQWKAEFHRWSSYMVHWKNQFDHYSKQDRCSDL
Procedure: as §1

[3] = target: T3, horse serum butyrylcholinesterase (hsBChE) (Equus caballus, UniProt P81908); assay: Cholinesterase inhibition assay (Ellman's method), hsBChE; format: biochemical; settings: for IC50: Ellman's method, 25 °C, pH 7.4
T3 construct: BChE derived from horse serum; purchased Sigma-Aldrich, St. Louis, MO, USA; host or cells: horse serum
T3 sequence (P81908 whole entry): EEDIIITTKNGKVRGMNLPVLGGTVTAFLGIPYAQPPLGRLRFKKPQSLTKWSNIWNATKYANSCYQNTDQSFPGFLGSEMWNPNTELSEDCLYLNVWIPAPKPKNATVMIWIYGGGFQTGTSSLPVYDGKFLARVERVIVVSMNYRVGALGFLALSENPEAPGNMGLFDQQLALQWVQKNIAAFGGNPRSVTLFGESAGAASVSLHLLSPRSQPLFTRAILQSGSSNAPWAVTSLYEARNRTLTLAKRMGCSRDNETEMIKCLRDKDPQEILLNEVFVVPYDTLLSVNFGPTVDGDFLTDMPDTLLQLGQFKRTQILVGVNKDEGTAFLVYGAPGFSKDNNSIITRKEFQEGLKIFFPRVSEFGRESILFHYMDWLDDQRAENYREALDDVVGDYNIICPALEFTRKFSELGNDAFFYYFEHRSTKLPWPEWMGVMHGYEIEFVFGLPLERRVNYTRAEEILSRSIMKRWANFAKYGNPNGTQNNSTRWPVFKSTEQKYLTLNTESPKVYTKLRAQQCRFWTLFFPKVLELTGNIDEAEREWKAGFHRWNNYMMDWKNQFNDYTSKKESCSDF
Procedure: as §1

[4] = target: T4, human recombinant butyrylcholinesterase (hrBChE) (Homo sapiens, UniProt P06276); assay: Cholinesterase inhibition assay (Ellman's method), hrBChE; format: biochemical; settings: for IC50: Ellman's method, 25 °C, pH 7.4
T4 construct: gift from the research group of Professor Stanislav Gobec, Faculty of Pharmacy, University of Ljubljana
T4 sequence (P06276 29-602): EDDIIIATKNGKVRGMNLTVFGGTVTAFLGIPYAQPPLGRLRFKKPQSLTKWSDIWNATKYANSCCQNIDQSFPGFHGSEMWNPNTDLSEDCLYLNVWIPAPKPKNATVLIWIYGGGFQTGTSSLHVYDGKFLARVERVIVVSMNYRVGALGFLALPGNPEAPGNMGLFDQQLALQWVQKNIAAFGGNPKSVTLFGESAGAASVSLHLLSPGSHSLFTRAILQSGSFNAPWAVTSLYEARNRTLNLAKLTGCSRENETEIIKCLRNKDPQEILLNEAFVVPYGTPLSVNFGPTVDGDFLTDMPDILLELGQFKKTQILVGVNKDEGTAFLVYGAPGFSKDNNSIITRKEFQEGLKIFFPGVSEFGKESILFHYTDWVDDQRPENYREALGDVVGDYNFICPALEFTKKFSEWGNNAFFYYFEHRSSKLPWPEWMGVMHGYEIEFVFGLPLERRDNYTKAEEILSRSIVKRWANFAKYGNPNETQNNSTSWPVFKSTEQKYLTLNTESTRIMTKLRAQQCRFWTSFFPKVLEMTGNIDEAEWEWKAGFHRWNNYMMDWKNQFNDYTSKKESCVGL
Procedure: as §1

[5] = target: canine serum butyrylcholinesterase (csBChE) (Canis lupus familiaris, UniProt A0A8I3PBA0); assay: Cholinesterase inhibition assay (Ellman's method), csBChE; format: biochemical; settings: for IC50: Ellman's method, 25 °C, pH 7.4
Sequence of canine serum butyrylcholinesterase (csBChE) (A0A8I3PBA0 29-602): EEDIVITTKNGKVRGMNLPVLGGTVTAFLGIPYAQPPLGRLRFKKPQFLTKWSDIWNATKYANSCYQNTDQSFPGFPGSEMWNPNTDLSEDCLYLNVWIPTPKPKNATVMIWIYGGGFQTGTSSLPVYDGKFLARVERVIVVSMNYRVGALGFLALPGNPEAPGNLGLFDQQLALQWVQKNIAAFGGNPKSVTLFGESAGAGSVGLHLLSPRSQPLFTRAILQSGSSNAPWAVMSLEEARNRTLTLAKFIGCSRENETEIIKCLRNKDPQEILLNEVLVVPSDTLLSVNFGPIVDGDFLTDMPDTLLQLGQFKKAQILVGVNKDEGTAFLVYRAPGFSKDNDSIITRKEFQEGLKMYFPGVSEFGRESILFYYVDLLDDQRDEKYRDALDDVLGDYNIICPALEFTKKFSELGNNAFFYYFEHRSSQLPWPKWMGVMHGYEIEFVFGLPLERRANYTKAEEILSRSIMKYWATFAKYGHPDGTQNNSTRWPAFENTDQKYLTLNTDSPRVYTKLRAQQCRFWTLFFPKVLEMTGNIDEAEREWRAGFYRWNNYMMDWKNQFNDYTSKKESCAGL
Procedure: as §1

[6] = target: T1, electric eel acetylcholinesterase (eeAChE); settings: previously reported; ref Ristovski et al. [9]; cited from earlier work
[7] = target: T2, human recombinant acetylcholinesterase (hrAChE); settings: previously reported; ref Ristovski et al. [9]; cited from earlier work
[8] = target: T3, horse serum butyrylcholinesterase (hsBChE); settings: previously reported; ref Ristovski et al. [9]; cited from earlier work
[9] = tested on: isolated mouse nerve-hemidiaphragm preparation; assay: Muscle contraction recordings on isolated hemidiaphragm
Procedure: (§2) Mice were sacrificed by cervical dislocation and immediate exsanguination. After dissection of the diaphragm muscle with both phrenic nerves, the diaphragm muscle was cut into two hemidiaphragms. Each hemidiaphragm was maintained in oxygenated standard Krebs-Ringer solution (154 mM NaCl, 5 mM KCl, 2 mM CaCl2, 1 mM MgCl2, 5 mM HEPES, and 11 mM D-glucose; pH 7.4). Just prior to experiments, C1 was dissolved in a solution of 2.5% DMSO in deionized water at a stock concentration of 2 mg/mL. The final concentration of DMSO in the organ bath was always 0.104% v/v. All experiments were performed at room temperature (22–24 °C).
The hemidiaphragm with phrenic nerve was pinned on its lateral side into a silicon-coated organ bath containing oxygenated Krebs-Ringer (K-R) solution. Then, the tendon part was linked to the lever of an isometric mechano-electrical transducer (Grass Instruments, West Warwick, RI, USA) via a stainless-steel hook and silk thread. The equal stimulus protocol, equipment, and software were used as previously described by Ristovski et al.. The concentrations of C1 studied were 30, 60, 90, and 120 μM and their effect on muscle contraction was continuously measured during 60 min after application. The muscle twitch and tetanic contraction blockade produced by C1 was shown as the percentage of the initial maximal response.

[10] = tested on: AChE in mouse diaphragm muscle; settings: 3 µM; cited from earlier work
[11] = target: T3, horse serum butyrylcholinesterase (hsBChE); assay: Cholinesterase inhibition assay (Ellman's method), hsBChE; format: biochemical; settings: substrate acetylthiocholine 0.125, 0.25, 0.5 mM
[12] = tested on: mouse hemidiaphragm muscle fibers; settings: 120 µM; for resting membrane potential (rVm), median: end-plate regions of surface fibers
Procedure: as §2
Electrophysiological recordings on hemidiaphragm muscle fibers were performed using conventional microelectrode techniques. For measurements of rVm, EPP, and MEPP, hemidiaphragm preparations were immersed in oxygenated K-R solution containing 1.6 μM of μ-conotoxin GIIIB (Bachem, Bubendorf, Switzerland) and incubated for 30 min. The same stimulus protocol, equipment, and software were used to perform membrane potential recordings, as previously described by Ristovski et al.. Only the highest concentration of C1 (120 μM) was studied. The recordings were performed before applying C1, 30 and 60 min after the compound application, and 15 min after the compound wash-out. MEPP and EPP amplitudes were normalized to a rVm of −70 mV using the formula: Vc = Vo (−70)/rVm, where Vc is the normalized amplitude of MEPPs and EPPs, and Vo is their recorded amplitude.

T1 sequence (O42275 24-633): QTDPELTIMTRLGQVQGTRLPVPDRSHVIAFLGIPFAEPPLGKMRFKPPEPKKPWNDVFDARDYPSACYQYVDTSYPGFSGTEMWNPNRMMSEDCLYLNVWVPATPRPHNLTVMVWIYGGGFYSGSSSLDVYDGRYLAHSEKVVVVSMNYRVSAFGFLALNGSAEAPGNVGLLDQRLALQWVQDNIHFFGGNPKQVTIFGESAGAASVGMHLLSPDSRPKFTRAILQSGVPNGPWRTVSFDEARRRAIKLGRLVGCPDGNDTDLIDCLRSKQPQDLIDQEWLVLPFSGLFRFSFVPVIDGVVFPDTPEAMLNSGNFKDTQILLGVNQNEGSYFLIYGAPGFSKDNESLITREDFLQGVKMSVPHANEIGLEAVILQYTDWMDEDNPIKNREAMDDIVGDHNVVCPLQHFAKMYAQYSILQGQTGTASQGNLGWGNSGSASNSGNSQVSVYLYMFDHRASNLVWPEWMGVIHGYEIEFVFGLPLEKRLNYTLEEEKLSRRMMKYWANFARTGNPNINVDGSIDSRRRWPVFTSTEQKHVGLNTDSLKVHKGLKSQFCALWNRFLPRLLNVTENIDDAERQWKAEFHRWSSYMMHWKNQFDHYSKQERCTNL

## COc1cccn(O)c1=S [Compound L1, 1-hydroxy-3-methoxypyridine-2(1H)-thion]
[1]
  inhibition of eeAChE (in words): did not inhibit
  IC50: > 180 µM
[2]
  inhibition of hrAChE (in words): did not inhibit
  IC50: > 180 µM
[3]
  inhibition of hsBChE (in words): did not inhibit
  IC50: > 180000 nM
[4]
  inhibition of hrBChE (in words): did not inhibit
  IC50: > 180 µM
[5]
  inhibition of csBChE (in words): did not inhibit
  IC50: > 180 µM

## Cc1ccc(C(C)C)cc1.Cc1ccc(C(C)C)cc1.[Cl][Ru][Cl].[Cl][Ru][Cl] [Compound P1, dichloro(p-cymene)ruthenium(II) dimer]
[6]
  IC50: > 180 µM
[7]
  IC50: > 180 µM
[8]
  IC50: 32.7 µM
  Ki: 23.3 µM

## CN(C)C(=O)Oc1cccc([N+](C)(C)C)c1 [Neostigmine, neostigmine methyl sulphate, reference compound]
[1]
  IC50: 3.9 µM
[3]
  IC50: 62800 nM
[4]
  IC50: 174 µM
[5]
  IC50: 28.4 µM
[9]; 3 µM, positive control
  effect on nerve-evoked single-muscle and tetanic contraction: a slight increase in the amplitude of the nerve-evoked single-muscle contraction and a tetanic fade
[10]
  inhibition of AChE in mouse diaphragm muscle: 96%

## [(η^6-p-Cymene)Ru(II)(1-hydroxy-3-methoxypyridine-2(1H)-thionato)Cl] [C1′]
[1]
  inhibition of eeAChE (in words): low micromolar range
  type of inhibition of eeAChE: reversible competitive type
  IC50: 7.5 µM
[1]; substrate 0.125, 0.25, 0.5 mM
  Ki: 4.8 µM
[2]
  inhibition of hrAChE (in words): low micromolar range
  type of inhibition of hrAChE: reversible competitive type
  IC50: 5.04 µM
[2]; substrate 0.125, 0.25, 0.5 mM
  Ki: 5.35 µM
[3]
  inhibition of hsBChE (in words): low micromolar range
  type of inhibition of hsBChE: reversible competitive type
  IC50: 2340 nM
[4]
  inhibition of hrBChE (in words): low micromolar range
  type of inhibition of hrBChE: reversible competitive type
  IC50: 1.29 µM
[4]; substrate 0.125, 0.25, 0.5 mM
  Ki: 1250 nM
[5]
  inhibition of csBChE (in words): low micromolar range
  type of inhibition of csBChE: reversible competitive type
  IC50: 2.27 µM
[5]; substrate 0.125, 0.25, 0.5 mM
  Ki: 3000 nM
[11]
  Ki: 3400 nM

## [(η^6-p-Cymene)Ru(II)(1-hydroxy-3-methoxypyridine-2(1H)-thionato)pta]PF6 [Compound C1]
[1]
  inhibition of eeAChE (in words): did not inhibit
  IC50: > 180 µM
[2]
  inhibition of hrAChE (in words): did not inhibit
  IC50: > 180 µM
[3]
  inhibition of hsBChE (in words): selectively inhibited
  type of inhibition of hsBChE: reversible competitive type
  IC50: 2880 nM
[4]
  IC50: 144 µM
[4]; ratio of IC50 hrBChE versus hsBChE
  inhibition of hrBChE lower compared to hsBChE: about 50 times
[5]
  IC50: > 180 µM
[5]; concentrations (0–180 µM) tested
  inhibition of csBChE (in words): did not inhibit
[9]; 120 µM, 60 min exposure
  nerve-evoked single-twitch and tetanic contractions: not statistically significant increases
[9]; 30, 60, 90 and 120 µM, 60 min exposure
  effect on maximal amplitude of nerve-evoked and directly elicited single-twitch and tetanic contractions: no significant effect
[9]; 30-120 µM, an increase would indicate a myotoxic effect
  resting muscle tension: did not detect an increase
[12]; 30 min after exposure
  resting membrane potential (rVm), median: −66.13 mV
[12]; 60 min after exposure
  resting membrane potential (rVm), median: −66.63 mV
[12]; after 30 and 60 min of exposure
  effect on resting membrane potential (rVm): no effect
[12]; within 60 min
  MEPPs frequency: without reducing
  amplitudes of EPPs: did not affect
  amplitudes of MEPPs: significantly decreased
[12]; within 60 min of exposure
  half-decay time of EPPs: shortened
  half-decay time of MEPPs: shortened
[11]
  Ki: 1330 nM
